From US8101774B2, “Ester derivatives and medicinal use thereof” (Japan Tobacco Inc., priority 2004, dated 2012)

Experiments:
[1] = target: T1, Microsomal triglyceride transfer protein (MTP) from human small intestine microsome (Homo sapiens, UniProt P55157); experiment: Inhibition test of interliposomal triglyceride (TG) transfer activity by MTP; type: biochemical; settings: purified MTP from human small intestine microsome, 37° C., 1.5 hours
T1 construct: Human small intestine microsome was dialyzed against 10 mM phosphate buffer; tissue Tissue Transforming Technologies, Inc; host or cells: human small intestine microsome
How it was run: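 DEAE-purified human small intestine MTP (50 μL of 20 μg/mL) incubated 1.5 hours at 37° C with ^14C-triolein donor and unlabelled acceptor SUV liposomes in pH 7.4 Tris buffer with 0.5% BSA. Donor removed on DEAE cellulose; acceptor radioactivity counted, blank-corrected against DMSO control, giving percent inhibition and IC50.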

[2] = Metabolic stability test in liver S9; type: in vitro ADME; settings: human liver S9 2 mg protein/mL, 37° C.
Procedure: Human liver S9 (final concentration: 2 mg protein/mL), was suspended in 100 mM potassium phosphate buffer (pH 7.4, containing β-nicotinamide adenine dinucleotide phosphate: 1.3 mM, D-glucose-6-phosphate: 3.3 mM, magnesium chloride: 3.3 mM, glucose-6-phosphate dehydrogenase: 0.4 U/mL). The suspension was mixed with a solution of a sample dissolved in DMSO. The solution was incubated at 37° C. for 0, 10 and 60 minutes, and an acetonitrile containing formic acid (final concentration: 0.1%) was added thereto. The solutions were centrifuged, and the concentration of the sample (unchanged form) in the supernatant was determined by high performance liquid chromatography/mass spectrometry (LC/MS). Based on the data obtained, remaining rate (%) was calculated according to the following equation. Remaining rate(%)=amount of sample 0, 10, or 60 minutes after incubation/amount of sample at zero time after incubation×100

[3] = Metabolic stability test in plasma; type: in vitro ADME; settings: 37° C.
Procedure: A sample dissolved in DMSO was added to plasma of human or animal species (mouse and hamster). The solutions were incubated at 37° C. for 0, 10 and 60 minutes, and acetonitrile containing formic acid (final concentration: 0.1%) was added thereto. The solutions were centrifuged, and the concentration of the sample (unchanged form) in the supernatant was determined by high performance liquid chromatography/mass spectrometry (LC/MS). Based on the data obtained, the remaining rate (%) was calculated according to the following equation. Remaining rate(%)=amount of sample 0, 10, or 60 minutes after incubation/amount of sample at zero time after incubation×100 With respect to the compounds obtained in Working Examples according to the present invention (Compounds 1-1 to 1-115, 2-1, 3-1, 3-2, and 4-1 to 4-4), the results of the remaining rate in human liver S9 and plasma are shown in Tables 28 to 32.

[4] = Stability test in buffer (pH 7.4); type: physicochemical; settings: 100 mM potassium phosphate buffer (pH 7.4):acetonitrile 7:3, 37° C.
Procedure: In the tables, Buf. remaining rate was determined by stability test in buffer (pH 7.4) as described below. A sample dissolved in DMSO was mixed with a mixed solution of 100 mM potassium phosphate buffer and acetonitrile in the ratio of 7:3 (v/v). The mixture was incubated at 37° C. for 0, 10, and 60 minutes, and acetonitrile containing formic acid (final concentration: 0.1%) was added thereto. The solution was centrifuged, and the concentration of the sample (unchanged form) in the supernatant was determined by high performance liquid chromatography/mass spectrometry (LC/MS). Based on the data obtained, Buf. remaining rate (%) was calculated according to the following equation. Buf. remaining rate(%)=amount of sample 0, 10, or 60 minutes after incubation/amount of sample at zero time after incubation×100

T1 sequence (P55157 19-894): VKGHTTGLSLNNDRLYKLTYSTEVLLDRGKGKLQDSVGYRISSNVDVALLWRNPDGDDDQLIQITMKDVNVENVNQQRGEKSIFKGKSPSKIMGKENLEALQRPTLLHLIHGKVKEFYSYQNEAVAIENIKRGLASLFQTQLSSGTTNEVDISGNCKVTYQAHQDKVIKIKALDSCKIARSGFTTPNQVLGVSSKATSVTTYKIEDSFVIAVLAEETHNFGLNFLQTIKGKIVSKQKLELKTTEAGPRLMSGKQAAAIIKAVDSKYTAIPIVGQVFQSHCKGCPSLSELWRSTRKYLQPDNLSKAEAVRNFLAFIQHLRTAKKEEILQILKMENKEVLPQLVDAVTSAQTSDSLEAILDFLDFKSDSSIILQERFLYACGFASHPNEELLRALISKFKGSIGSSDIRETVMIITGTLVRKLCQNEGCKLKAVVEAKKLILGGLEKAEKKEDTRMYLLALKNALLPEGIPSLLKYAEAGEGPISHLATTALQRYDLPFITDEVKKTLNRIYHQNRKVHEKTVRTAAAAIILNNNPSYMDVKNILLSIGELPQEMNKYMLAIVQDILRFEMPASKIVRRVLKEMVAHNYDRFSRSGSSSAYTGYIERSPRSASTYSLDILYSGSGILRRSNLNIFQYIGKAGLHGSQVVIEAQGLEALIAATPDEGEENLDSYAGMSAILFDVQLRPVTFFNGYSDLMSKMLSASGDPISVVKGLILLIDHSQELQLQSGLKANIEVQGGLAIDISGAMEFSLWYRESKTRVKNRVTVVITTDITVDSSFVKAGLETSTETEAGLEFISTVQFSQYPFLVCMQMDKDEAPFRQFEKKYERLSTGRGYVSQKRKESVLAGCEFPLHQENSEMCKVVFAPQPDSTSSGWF
T1 sequence (P07237 18-508 partner): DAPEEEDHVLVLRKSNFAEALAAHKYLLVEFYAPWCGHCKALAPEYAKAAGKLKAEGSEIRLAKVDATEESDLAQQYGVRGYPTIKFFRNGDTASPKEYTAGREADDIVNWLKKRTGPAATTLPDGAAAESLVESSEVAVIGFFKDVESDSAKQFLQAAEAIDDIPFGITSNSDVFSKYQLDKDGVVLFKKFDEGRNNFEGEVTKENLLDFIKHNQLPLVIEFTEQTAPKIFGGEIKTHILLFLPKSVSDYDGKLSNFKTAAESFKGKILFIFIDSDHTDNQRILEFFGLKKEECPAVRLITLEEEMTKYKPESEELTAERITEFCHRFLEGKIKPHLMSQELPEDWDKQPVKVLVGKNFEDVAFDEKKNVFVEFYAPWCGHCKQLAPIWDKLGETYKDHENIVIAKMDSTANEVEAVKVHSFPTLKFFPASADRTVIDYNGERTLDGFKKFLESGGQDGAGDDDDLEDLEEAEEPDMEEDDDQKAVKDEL

SMILES	IC50 [1]	Remaining rate in human liver S9 (%/10 min) ([2]; 10 min)	Remaining rate in human liver S9 (%/60 min) ([2]; 60 min)	Remaining rate in human plasma (%/60 min) [3]	Buf. remaining rate (%/10 min) ([4]; 10 min)	Buf. remaining rate (%/60 min) ([4]; 60 min)
COC(=O)c1ccc(OC(=O)CCCc2ccc(NC(=O)c3ccccc3-c3ccc(C(F)(F)F)cc3)c(C(=O)N(C)C)c2)c(C)c1 [Compound 1-66, 4-[4-(3-dimethylcarbamoyl-4-{(4′-trifluoromethylbiphenyl-2-carbonyl)amino}phenyl)butyryloxy]-3-methylbenzoic acid methyl ester]	< 10 nM	3%	0%	8%	101%	103%
COC(=O)c1ccc(OC(=O)CCCc2ccc(NC(=O)c3ccc(C)cc3-c3ccc(C(F)(F)F)cc3)c(C(=O)N(C)C)c2)cc1 [Compound 1-9, 4-(4-{3-dimethylcarbamoyl-4-[(5-methyl-4′-trifluoromethylbiphenyl-2-carbonyl)amino]phenyl}butyryloxy) benzoic acid methyl ester]	< 10 nM	–	–	–	–	–
CC(C)OCCOC(=O)c1ccc(OC(=O)CCCc2ccc(NC(=O)c3ccccc3-c3ccc(C(F)(F)F)cc3)c(C(=O)N(C)C)c2)cc1 [Compound 1-76, 4-[4-(3-dimethylcarbamoyl-4-{(4′-trifluoromethylbiphenyl-2-carbonyl)amino}phenyl)butyryloxy]benzoic acid 2-isopropoxyethyl ester]	< 10 nM	–	–	–	–	–
CCCOC(=O)c1cc(Cl)c(OC(=O)CCCc2ccc(NC(=O)c3ccc(C)nc3-c3ccc(C(F)(F)F)cc3)c(C(=O)N(C)C)c2)c(OC)c1 [Compound 1-75, 3-chloro-4-[4-(3-dimethylcarbamoyl-4-{[6-methyl-2-(4-trifluoromethylphenyl)pyridine-3-carbonyl]amino}phenyl)butyryloxy]-5-methoxybenzoic acid propyl ester]	< 10 nM	–	–	–	–	–
